Measured values reported in patent US10889572B2, “Reactive oxygen species scavengers and use for treating diseases” (XW LABORATORIES INC., priority 2017, dated 2021).
Where two headings read alike, the source gives them in different places.

Legend:
[1] = test system: HT-1080 (fibrosarcoma) cells; assay: Primary screening by ferroptosis assay (Erastin-induced, cell viability, CellTiter-Glo); assay type: cell-based; conditions: HT-1080 cells, % remaining activity, read-out: EC50, Inhibition for Ferroptosis in HT-1080 Cell
In short: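 HT-1080 cells seeded overnight, then treated in triplicate with 12-point 2-fold compound dilutions prepared in medium containing 400 μM Erastin (stock before transfer). Viability read by CellTiter-Glo luminescence after 30 h. % remaining activity normalised to vehicle and Erastin-only background; EC50 from non-linear regression.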

[2] = test system: 3T3-L1 cells; assay: Apoptosis assay (Caspase-Glo 3/7, Actinomycin D induced); assay type: cell-based; conditions: 100 nM Actinomycin D, 48 hours, Caspase-Glo 3/7, 2 hours pre-treatment, read-out: EC50, Inhibition for Apoptosis in 3T3-L1 Cell induced by Actinomycin D
Experimental: Cell Lines and Media. 3T3-L1 cells were obtained from American Type Culture Collection. Cells were grown in DMEM completed media, 10% FBS, and penicillin-streptomycin mix (Invitrogen). Cells were maintained at 37° C. and 5% CO2 in a tissue culture incubator.
Apoptosis Assay. […] We used this assay to screen our compounds for apoptosis inhibition. Briefly, 40 μL of 3000 3T3-L1 cells were seeded per well in 384 well plates, cells were allowed to adhere overnight. In the next day, prepare the Actinomycin D as the apoptosis inducing agent into 100 μM DMSO stock. Prepare the test compounds into 10 mM DMSO stock. Serial dilute the compound into 10 points by 3-fold dilution with DMSO. Pre-treat the 3T3-L1 cells with test compound by transfer 40 nL of stock of serial concentration in triplicate wells using acoustic fluid transfer, incubate for 2 hours. Then transfer 40 nL of 100 μM of Actinomycin D (final concentration is 100 nM) into designated wells using acoustic fluid transfer. Incubate the assay plates at 37° C., 5% CO2, 95% humidity incubator for 48 hours. For caspase assay, add 20 μL/well of Caspase-Glo>3/7 reagent (Promega) into test wells. Incubate for 30 minutes at room temperature to stabilize the luminescence signal. Read the plate with EnSpire Multimode Plate Reader (PerkinElmer). Calculate the EC50 value using formula equation 201: y−(A+((B−A)/(1+((x/C)^D)))) from the XLFit (Excel add-in software), where
A: Average mean of vehicle samples
B: Average mean of cells treated with 100 nM AcD
Z′ factor was used to describe the screening assay perfonuance. The Z′ factor value was >0.5 in all the test plates which indicated the assay was qualified and the IC50 value was reliable for all tested compounds.

| Compound | EC50 ([1]; Homo sapiens, 30 hours) [µM] | EC50 ([2]; Mus musculus, 3T3-L1) [µM] | EC50 ([1]; 30 hours) [µM] | EC50 [2] [µM] | EC50 ([1]; Homo sapiens, HT-1080, 30 h) [µM] |
| --- | --- | --- | --- | --- | --- |
| CC(C)C[C@@H](/C=C/[C@H](Cc1ccccc1)C(=O)N1CCC[C@H]1C(=O)N[C@@H](C(=O)NC1CC(C)(C)N([O])C(C)(C)C1)C(C)C)NC(=O)OC(C)(C)C [Example II, tert-Butyl ((4S,7S,E)-7-benzyl-8-((S)-2-(((R)-1-((1-oxyl-2,2,6,6-tetramethylpiperidin-4-yl)amino)-3-methyl-1-oxobutan-2-yl)carbamoyl)pyrrolidin-1-yl)-2-methyl-8-oxooct-5-en-4-yl)carbamate] | 0.289 | 3.04 | – | – | – |
| CC(C)CC(C=CC(Cc1ccccc1)C(=O)N1CCCC1C(=O)NC(CCCNC(=O)OC1CC(C)(C)N([O])C(C)(C)C1)C(N)=O)NC(=O)OC(C)(C)C [Example XXVIII, tert-Butyl N-[(4S,5E,7S)-7-benzyl-8-[(2S)—2-{[(1S)-1-carbamoyl-4-({[(1-oxyl-2,2,6,6-tetramethylpiperidin-4-yl)oxy]carbonyl}amino-)butyl]carbamoyl}pyrrolidin-1-yl]-2-methyl-8-oxooct-5-en-4-yl]carbamate] | – | – | 0.251 | 3.93 | – |
| CC(C)C[C@@H](/C=C/[C@H](Cc1ccccc1)C(=O)N1CCC[C@H]1C(=O)N[C@@H](CCCNC(=O)OC1CC(C)(C)N(O)C(C)(C)C1)C(=O)NC(C)C)NC(=O)OC(C)(C)C [Example XXXXIV, tert-Butyl N-[(4S,5E,7S)-7-benzyl-8-[(2S)—2-{[(1S)-4-({[(1-oxyl-2,2,6,6-tetramethylpiperidin-4-yl)oxy]carbonyl}amino)-1-[(propan-2-yl)carbamoyl]butyl]carbamoyl}pyrrolidin-1-yl]-2-methyl-8-oxooct-5-en-4-yl]carbamate] | – | 0.628 | – | – | 0.14 |
| COC(=O)[C@H](CCCNC(=O)OC1CC(C)(C)N(O)C(C)(C)C1)NC(=O)[C@@H](NC(=O)[C@@H]1CCCN1C(=O)[C@H](/C=C/[C@H](CC(C)C)NC(=O)OC(C)(C)C)Cc1ccccc1)C(C)C [Example XXXVIII, (S)—Methyl 2-((S)-2-((S)-1-((2S,5S,E)-2-benzyl-5-((tert-butoxycarbonyl)amino)-7-methyloct-3-enoyl)pyrrolidine-2-carboxamido)-3-methylbutanamido)—5-((((1-oxyl-2,2,6,6-tetramethylpiperidin-4-yl)oxy)carbonyl)amino)pentanoate] | – | 2.65 | – | – | 0.076 |
| CC(C)C[C@@H](/C=C/[C@H](Cc1ccccc1)C(=O)N1CCC[C@@H]1C(=O)N[C@H](C(=O)N[C@@H](CCCNC(=O)OCc1ccccc1)C(=O)NC1CC(C)(C)N(O)C(C)(C)C1)C(C)C)NC(=O)OC(C)(C)C [Example VII, Benzyl N-[(4S)-4-[(2S)—2-{[(2R)-1-[(2S,3E,5S)-2-benzyl-5-{[(tert-butoxy)carbonyl]amino}-7-methyloct-3-enoyl]pyrrolidin-2-yl]formamido}-3-methylbutanamido]-4-[(1-hydroxy-2,2,6,6-tetramethylpiperidin-4-yl)carbamoyl]butyl]carbamate] | 0.342 | 4.64 | – | – | – |
| CC(C)C[C@@H](/C=C/[C@H](Cc1ccccc1)C(=O)N1CCC[C@H]1C(=O)NC(CCCNC(=O)OCc1ccccc1)C(=O)NC1CC(C)(C)N(O)C(C)(C)C1)NC(=O)OC(C)(C)C (stereo in doubt) [Example V, Benzyl N-[(4R)—4-{[(2S)-1-[(2S,3E,5S)-2-benzyl-5-{[(tert-butoxy)carbonyl]amino}-7-methyloct-3-enoyl]pyrrolidin-2-yl]formamido}-4-[(1-hydroxy-2,2,6,6-tetramethylpiperidin-4-yl)carbamoyl]butyl]carbamate] | – | 1.31 | – | – | 0.141 |
